Source: US20160297828A1, “SPIROCYCLIC COMPOUNDS CONTAINING SPIRO[INDOLYL-3,1'-PYRROLO[3,4-C]PYRROLE] CORE AND SULPHUR-CONTAINING AMINO ACID RESIDUES” (priority 2013, published 2016)
Where “and” joins values, the source holds several entries; their conditions need not be identical. Equal entries are not always repeated. Marks after values point to notes of the source that are not given here.

Key:
[1] = test system: rats with intracerebral hemorrhage; experiment: Neurological deficit (C. P. McGrow stroke-index scale) in rats with intracerebral hemorrhage; assay type: in vivo; details: n = 15
Description: (§1) Neuroprotective effect of 3,2′-spiro-pyrrolo-2-oxindole derivative (SI-86 compound) was studied on IUD model of moderate severity modeled under propofol anesthesia (60 mg/kg intraperitoneally (ip)) by autoblood administration into the brain internal capsule (stereotactic coordinates of the projection: H=7.0 mm, L=3.0 mm, A=1.5 mm from bregma) ([…]) (Method for reproduction of intracerebral hemorrhage in rats/O. K. Yarosh, S. V. Kyrychenko, S. P. Halimonchyk [et al.]//Circulation and hemostasis.-2005.-No. 1.-P. 77-81). The chosen model allows to reproduce clinical pattern of […] and is adequate for clinical study of potential neuroprotective agents.
(§2) As comparators the following drugs were used: mexydol (“Mexydol” UC Pharmasoft, Russia), 100 mg/kg; citicoline (“Somazina” Ferrer International, SA, Spain), 250 mg/kg; aktovegin (“Aktovegin”, Nycomed, Austria), 16 mg/kg pyracetam (“Pyracetam” Darnitsa, Ukraine), 400 mg/kg. According to the latest clinical guidelines regarding the treatment of patients with CVA approved by the Ministry of Health of Ukraine (Order No. 602 dated 3 Aug. 2012), all these drugs are allowed to be included into schemes for intensive patients therapy with CVA as neuroprotective agents. They were used at recommended doses for preclinical studies (McGrow C. P. Experimental Cerebral Infarction Effects of Pentobarbital in Mongolian Gerbils/C. P. McGrow//Arch. Neurol.-1977.-Vol. 34, No. 6.-P. 334-336). Experimental therapy of acute cerebral ischemia with SI-86 compound and comparator started 1 hour after IUD once a day for 21 days. The SI-86 derivative was investigated in conventionally effective dose of 10 mg/kg […] (iv)-dose that according to the results of our previous study provides maximum antihypoxic activity of SI-86 compound. Reference drugs were injected intraperitoneally (ip). Rats of control pathology group were injected by autoblood and as therapy 0.9% NaCI solution was administered calculated for 2 ml/kg […].
Neurological deficit in animals with acute CVA respectively in acute (4th day) and recovery (21 st day) periods was measured on C. P. McGrow stroke-index scale. The state severity was determined by amount of relevant points: to 3 points-mild, 3 to 7 points-average, above 7 points-severe degree. Pareses, paralyses of limbs, tremors, circus movement, ptoses, lateral positions, ability of rats to be maintained at the core of 15 cm diameter, rotating at the rate of 3 rpm were noted. The animals were tested daily by displaying the amount of points:
one-sided semi-ptosis—0.5 points; one-sided ptosis—1 point; tremor—0.5 points; circus movements—0.5 points; pareses of limbs (for each limb)—1 point; paralyses of limbs (for each limb)—2 points; lateral position—3 points; disability to maintain on rotating rod during 4 minutes—3 points.

rats = experiment: Acute normobaric hypoxic hypoxia with hypercapnia (ANHHH), life duration; assay type: in vivo; details: preventive administration; SI-86 and SI-108 10 mg/kg iv, mexydol 100 mg/kg ip
Description: The study of antihypoxic activity of 10 original derivatives of 3,2′-spiro-pyrrolo-2-oxindole was conducted on models of acute normobaric hypoxic hypoxia with hypercapnia (ANHHH) and acute asphyxia. ANHHH was modeled by means of rat arrangement into isolated pressure compartments (0.001 m^3). The observation conducted until the death of the animals. The antihypoxic activity was assessed by life duration (in minutes) in relation to the control taken as 100%, by the formula AA=tt/tk×100%, wherein AA—antihypoxic activity (%), tt—life duration of test animals, tc—life duration of control animals.
(§3) The preliminary screening of test substances was performed on ANHHH model. All derivatives were administered in the same dose of 10 mg/kg […] (iv) 1 hour prior to pathological state modeling. […] The effectiveness of a leader compound was evaluated at doses 5; 10 and 15 mg/kg iv. Mexydol was chosen as a reference drug having antihypoxic action in combination with antioxidant and membrane protective activity, which is successfully used in patients with CVA and IM. Mexydol was administered intraperitoneally (ip) at a dose of 100 mg/kg according to similar scheme.

[2] = test system: rats with intracerebral hemorrhage; experiment: Lethality of rats with intracerebral hemorrhage of average severity; assay type: in vivo
Description: The chosen model allows to reproduce clinical pattern of […] and is adequate for clinical study of potential neuroprotective agents.
As comparators the following drugs were used: mexydol (“Mexydol” UC Pharmasoft, Russia), 100 mg/kg; citicoline (“Somazina” Ferrer International, SA, Spain), 250 mg/kg; aktovegin (“Aktovegin”, Nycomed, Austria), 16 mg/kg pyracetam (“Pyracetam” Darnitsa, Ukraine), 400 mg/kg. According to the latest clinical guidelines regarding the treatment of patients with CVA approved by the Ministry of Health of Ukraine (Order No. 602 dated 3 Aug. 2012), all these drugs are allowed to be included into schemes for intensive patients therapy with CVA as neuroprotective agents. They were used at recommended doses for preclinical studies (McGrow C. P. Experimental Cerebral Infarction Effects of Pentobarbital in Mongolian Gerbils/C. P. McGrow//Arch. Neurol.-1977.-Vol. 34, No. 6.-P. 334-336). Experimental therapy of acute cerebral ischemia with SI-86 compound and comparator started 1 hour after IUD once a day for 21 days. […] Reference drugs were injected intraperitoneally (ip). Rats of control pathology group were injected by autoblood and as therapy 0.9% NaCI solution was administered calculated for 2 ml/kg iv.
Pseudo-operated rats were exposed to all interventions (anesthesia, craniotomy) excluding autoblood administration that leveled traumatic impact of experimental conditions.
(§4) Evaluation of the ability of animals to learn and memorize of aversive stimulus was examined in the test of conditioned response of passive avoidance (CRPA). The technique is based on innate rat instinct to limited shadowy space. The study in rats was conducted in two-compartment unit consisted of two sections—light and dark. An animal was arranged into light compartment, fixing latency time for entering into the dark compartment, wherein rat received current irritation and ran in the light compartment. CRPA retention was tested every other day under latency time change of rat entering into the dark compartment. Also the number of animals was noted not fully entered the dark chamber. Cerebroprotective efficiency criteria of studied compounds were also animal death term (days) and their mortality rate (in %).
Quantitative data were processed using statistical StatPlus 2009 processing. The statistical significance of differences was assessed by Fisher's angular transformation (lethality outcome), also parametric t Student criterion were used in case of normal distribution of variation series, nonparametric W White criterion—in its absence.

[3] = test system: rats with intracerebral hemorrhage; experiment: Conditioned response of passive avoidance (CRPA) in rats with intracerebral hemorrhage; assay type: in vivo; details: 21st day, n = 15
Description: as §1, §2, §4

[4] = test system: rat heart bioelectrical activity; experiment: Acute asphyxia, duration of heart bioelectrical activity; assay type: in vivo, rats; details: 100 mg/kg ip
Description: Acute asphyxia was modeled in rats anesthetized with propofol (60 mg/kg) intraperitoneally (ip) by complete clamping the trachea at electrocardiogram (EGC) registration. The antihypoxic effect was evaluated by duration of heart bioelectric activity (HBA). This model allows to estimate the heart sensitivity to hypoxia. An isoelectric ECG line for 1 minute considered as HBA termination, the pint of HBA termination corresponded to the last QRS complex on the ECG. The calculation of […] activity was performed by the above formula considering a point of last QRS complex registration as a lifetime.
as §3

liver and pancrea cells = experiment: Pro/antiapoptosis properties, electrophoresis of DNA fragments; assay type: in vivo; details: intact male Wistar rats; 50 mg/kg
Description: The assessment of pro/antiapoptotosis properties of substances was carried in intact male rats of Wistar line. The test substance were administered for 2 weeks by means of a probe in aqueous suspension containing Tween-80 at a dose of 50 mg/kg of body weight. The animals were euthanized by cervical vertebrae translocation 24 hours after the experiment. The identification of apoptosis of liver and pancrea cells was performed using electrophoretic method. […] Cell necrosis conditioned the “smeared” nature of DNA migration zone. The luminescence band of intact DNA was in the starting area.
The expression of apoptosis manifestations was assessed by registration of DNA fragments via electrophoresis.

[5] = test system: ischemic brain damage in rats; details: 60 mg/kg and 30 mg/kg, 3 and 7 hours after reperfusion; cited from earlier work
[6] = 12 h, SI-86 10 mg/kg iv, mexydol 100, citocoline 250, actovegin 16, pyracetam 400 mg/kg

## CCc1nc(C)ccc1O.O=C(O)CCC(=O)O [mexydol]
[1]; day 4, SI-86 10 mg/kg iv, mexydol 100, citocoline 250, actovegin 16, pyracetam 400 mg/kg ip
  neurological deficit, average point under C. P. McGrow scale: 4.30 ± 0.25°*^#•$ points
[1]; day 21, same doses
  neurological deficit, average point under C. P. McGrow scale: 3.8 points and 3.80 ± 0.21°*^#•$ points
rats
  increase of life duration in rats in relation to control: 80.2%
[2]; [6]
  Lethality, %: 0/0%*^#
  Lethality, abs.: 0/0%*^#
[2]; 24 h, same doses
  Lethality, abs.: 0/0%*^#
[2]; 24 h observation, SI-86 10, mexydol 100, citicoline 250 mg/kg
  cerebroprotective protection: 100%
[2]; 48 h, same doses
  Lethality, %: 7.9%
  Lethality, abs.: 3
[2]; 72 h, same doses
  Lethality, %: 10.5%
  Lethality, abs.: 4
[2]; 96 h, same doses
  Lethality, %: 13.2%
  Lethality, abs.: 5
[2]; within 4 days of therapy, same doses
  reduction of mortality in rats at the end of the observation period relative to control: 17.2%
[3]; SI-86 10 mg/kg iv, mexydol 100, citocoline 250, actovegin 16, pyracetam 400 mg/kg ip
  Latent period for entrance into dark compartment, prior study: 11.30 ± 0.47°*^#$ s
[3]; same doses
  Latent period for entrance into dark compartment, 24 hours after study: 106.80 ± 2.77°*^#•$ s
[4]
  Antihypoxic activity: +50.9%
  Duration of heart bioelectrical activity: 17.5 ± 0.5 min

## CCSCC[C@@H]1N[C@@]2(C(=O)Nc3ccccc32)[C@@H]2C(=O)N(c3ccc(C)cc3)C(=O)[C@H]12 [SI-34, 5′-(4-Methylphenyl)-3′-[2-(ethylthio)ethyl]-3a′,6a′-dihydro-2′H-spiro[indole-3, 1′-pyrrolo[3,4-c]pyrrol]-2,4′,6′(1H,3H′,5H′)-trione]
Liver and pancrea cells
  level of apoptosis: closed to that of control group

## Cc1c(Cl)cccc1S(=O)(=O)Nc1nc(CC(=O)N2CCN(C)CC2)cs1.Cl [BVT-2733, 3-chloro-2-methyl-N-(4-(2-(4-methylpiperazin-1-yl)-2-oxoethyl)thiazol-2-yl)benzenesulfonamide hydrochloride]
[5]
  amount of ischemic brain damage: reduced the amount of ischemic brain damage
